Results: publication PMC9518244, “TiO2 nanotube immobilised 5-lipoxygenase-mediated screening and isolation of anti-inflammatory active compounds from the leaves of lonicera japonica thunb” (Journal of Enzyme Inhibition and Medicinal Chemistry, 2022)
Read-outs that look alike come from different tables or passages of the source.

Tests used:
5-LOX [1] = target: T1, 5-LOX (Glycine max, UniProt P08170); experiment: 5-LOX immobilised on TiO2 nanotubes microreactor screening (HPLC peak area ratio); type: binding; details: analytes of LLJT extract eluted from immobilised 5-LOX, HPLC-MS
Description: Glutaraldehyde (GA) was used as crosslinking agent to covalently immobilise 5-LOX on the amino terminated TNTs. The NH2-TNTs was added to GA solution and shaken in a incubator at room temperature (25 °C) for 8 h. The resulting product was labelled GA-TNTs. Then GA-TNTs was merged with Tris-HCl solution (0.1 M, pH 7.0) containing a certain amount of 5-LOX, and the immobilisation was performed in a shaker at 4 °C for a certain time. After that, the immobilised 5-LOX was acquired by centrifuge to remove supernatant and comprehensively rinsed with Tris-HCl buffer solution several times to remove the unimmobilised enzyme. The 5-LOX-TNTs composites were suspended in Tris-HCl solution and stored at 4 °C before use.
The crude extract of leaves of Lonicera japonica Thunb. was added to 5% (v/v) methanol-Tris buffer solution, and dissolved by ultrasonic to prepare an incubation solution with a concentration of about 5.66 mg/mL. Then 25 mg of material immobilised with 5-LOX was combined with 1 mL of incubation solution and incubated at 25 °C for 90 min on a shaker. After incubation, the material was washed with 1 mL of buffer solution for six times. Then 1 mL of 90% (v/v) acetonitrile aqueous solution was used for ultrasonic elution for 10 min. After centrifugation, the supernatant was filtered and analysed by HPLC-MS.
The screening processes were the same as above.

5-LOX [2] = target: T1, 5-LOX; experiment: Offline enzyme model: 5-LOX inhibition, linoleic acid / FOX reagent, A590; type: biochemical; details: concentration 1.0 mmol/L
From the text: Specific steps were as follows:
Information Classification: General
(1 picture or pasted object on this page, not shown here)

RAW264.7 cells [3] = experiment: Cell morphology observation of RAW264.7 cells; type: cell-based, mouse; details: 60 μM, with and without LPS 100 ng/mL, microscope 200x
Description: The RAW264.7 mouse macrophage cell line (RAW264.7) was cultured in DMEM (Dulbecco's modified eagle medium) supplemented with 10% (v/v) Fetal bovine serum (FBS), 1×105 U·L-1 penicillin and 100 mg·L-1 streptomycin under an atmosphere of humidified 5% CO2 at 37 °C to the logarithmic phase. The samples were dissolved in DMSO and diluted with medium to the desired concentration. The content of DMSO should not exceed 1‰.
There are blank group (no test sample, no LPS), model group (100 ng/mL LPS), experimental group (60 μM test sample + LPS) and negative control group (60 μM test sample) were tested.
For cell morphology observation , the cells were seeded into 6 -well plates at an inoculation amount of 6 ×10^5/well, cultured at 37 °C and 5% CO2 for 24 h, and then the medium was changed. After 2 h incubation with different groups, LPS stimulation with a final concentration of 100 ng/mL were added into the model group and experimental group .
normal group and the negative control group were added with the same volume of PBS, and then photographed under a microscope (200x) after 22 h.

RAW264.7 cells [4] = experiment: Cytotoxicity assay (CCK-8) in RAW264.7 cells; type: cell-based, mouse; details: for Toxicity on RAW264.7 cells (in words): 20-60 μM, luteolin 1-5 μM
Description: (§1) For cytotoxicity assay, RAW264.7 cells were seeded in 96-well plates at an inoculation amount of 3 × 10^4/well, and the medium was changed after culturing for 24 h at 37 °C and 5% […]
(§2) concentration (20 μM, 40 μM and 60 μM) of sample solution prepared with fresh medium was added dropwise to 96-well plate. After incubation for 2 h, LPS with a final concentration of 100 ng/mL was added to each well of the experimental group and the model group , the same volume of PBS was added to the normal group and the negative control group. After stimulation for another 22 h, the medium was removed and replaced with fresh medium. 10 μL of CCK-8 reagent was added at room temperature in the dark, and the absorbance was measured at a wavelength of 450 nm after 1 h. […]

RAW264.7 cells [5] = experiment: NO production in LPS-stimulated RAW264.7 cells (NO kit); type: cell-based, mouse; details: for LPS-induced NO release in RAW264.7 cells (in words): compared with the model group
Description: For the effects of the test samples on NO production research, RAW264.7 cells were seeded in 96-well plates at 3×10^4 cells/well, cultured at 37°C, 5% CO 2, and the medium was changed after 24 h. There were the blank group, model group, experimental group (20 μM, 40 μM, 60 μM test sample+LPS) and negative control group (60 μM test sample). After dosing, the cells were incubated at 37 °C with 5% CO 2 for 2 h, then LPS was added to the model group and the experimental group to make the final concentration reach 100 ng/mL, the normal group and the negative control group were added with the same volume of PBS, Then 50 μL of supernatant was taken after culturing for 20 h to record the absorbance value at 540 nm using Information Classification: General

[6] = Cytotoxicity assay (CCK-8) in RAW264.7 cells; type: cell-based, mouse; details: mouse, RAW264.7 cells, read-out: Cell viability (%)
Description: as §1, §2

5-LOX [7] = system: 5-LOX; parameters: method as in earlier work; details: RBL-1 cells; cited from earlier work
[8] = Cytotoxicity assay (CCK-8) in RAW264.7 cells; type: cell-based; details: mouse, no LPS, read-out: Cell viability (%)
rat foot swelling = experiment: Rat foot swelling model (egg white); type: in vivo; details: 5.0 mg/kg intraperitoneal, 10-60 min after egg white
Description: the NO kit, and the amount of NO produced in each well was calculated. Each group of experiment was performed in parallel three times.
All the animals were acclimated under standard laboratory conditions and had free access to standard water and food. All procedures were conducted in accordance with the “Guiding Principles in the Care and Use of Animals” (China) and were approved by the Ethics Committee of Biomedical Scientific Research of Henan University.
Thirty two male and female rats were divided into four groups with eight rats in each group.
They were normal saline negative control group, dexamethasone positive control group, n-butanol phase of Lonicera japonica Thunb. leaves (RDY nB) administration group and the […]
The intraperitoneal injection method was used
One hour after injection the corresponding drugs in each group, 0.1 mL of fresh egg white was injected into the right postal paw of each rat. Before and after the injection of egg white at 10, 20, 30, 40, 50, and 60 min, the volume of the right postal paw of rat was measured by a toe volume meter, and the swelling rate was calculated. […]
Statistical analysis was analyzed by one-way ANOVA through SPSS 17.0 software, and all data expressed as mean ± SD. Meanwhile, the significant difference between groups was evaluated by Tukey post-hoc test, P<0.05 and P<0.01 were considered statistically Information Classification: General […]

[9] = 40 μmol/L, LPS 100 ng/mL, vs model group
[10] = 60 μmol/L, LPS 100 ng/mL, vs model group

T1 sequence (P08170 whole entry): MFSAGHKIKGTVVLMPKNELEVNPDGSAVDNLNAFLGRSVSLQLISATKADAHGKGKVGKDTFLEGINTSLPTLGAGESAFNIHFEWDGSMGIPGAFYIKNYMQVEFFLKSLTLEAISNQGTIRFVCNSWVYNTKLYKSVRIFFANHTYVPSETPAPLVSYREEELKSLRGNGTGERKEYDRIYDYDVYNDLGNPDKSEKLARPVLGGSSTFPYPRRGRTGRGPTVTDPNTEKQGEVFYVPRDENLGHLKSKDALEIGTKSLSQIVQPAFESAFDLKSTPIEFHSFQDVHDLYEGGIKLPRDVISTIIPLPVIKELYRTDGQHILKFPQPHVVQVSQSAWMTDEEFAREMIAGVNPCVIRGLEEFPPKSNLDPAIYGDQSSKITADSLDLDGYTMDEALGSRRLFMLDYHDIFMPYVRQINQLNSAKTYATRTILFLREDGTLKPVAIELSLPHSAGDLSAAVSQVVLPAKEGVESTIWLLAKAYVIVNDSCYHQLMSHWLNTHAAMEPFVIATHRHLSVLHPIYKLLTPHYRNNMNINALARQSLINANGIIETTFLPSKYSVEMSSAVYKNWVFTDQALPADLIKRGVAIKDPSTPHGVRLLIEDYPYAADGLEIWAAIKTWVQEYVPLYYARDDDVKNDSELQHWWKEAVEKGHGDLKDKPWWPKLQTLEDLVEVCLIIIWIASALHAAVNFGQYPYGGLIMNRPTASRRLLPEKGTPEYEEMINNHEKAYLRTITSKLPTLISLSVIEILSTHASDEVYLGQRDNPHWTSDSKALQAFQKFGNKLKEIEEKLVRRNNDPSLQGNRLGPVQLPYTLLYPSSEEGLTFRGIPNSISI

| Compound | Bonding rate (%) (5-LOX [1]) | Inhibitory rate (%) (5-LOX [2]) | Effect on morphology of RAW264.7 cells (RAW264.7 cells [3]) | Cell viability (%) (RAW264.7 cells [4]; 20 μmol/L, LPS 100 ng/mL) | Cell viability (%) (RAW264.7 cells [4]; 20 μmol/L, no LPS) | Cell viability (%) (RAW264.7 cells [4]; 40 μmol/L, LPS 100 ng/mL) | Cell viability (%) (RAW264.7 cells [4]; 40 μmol/L, no LPS) | Cell viability (%) (RAW264.7 cells [4]; 60 μmol/L, LPS 100 ng/mL) | Cell viability (%) (RAW264.7 cells [4]; 60 μmol/L, no LPS) | Toxicity on RAW264.7 cells (in words) (RAW264.7 cells [4]) | NO content (RAW264.7 cells [5]; 20 μmol/L, LPS 100 ng/mL) [µmol/L] | NO content (RAW264.7 cells [5]; 20 μmol/L, no LPS) [µmol/L] | NO content (RAW264.7 cells [5]; 40 μmol/L, LPS 100 ng/mL) [µmol/L] | Inhibition rate (%) of NO production (RAW264.7 cells [5]; [9]) [%] | NO content (RAW264.7 cells [5]; 60 μmol/L, LPS 100 ng/mL) [µmol/L] | Inhibition rate (%) of NO production (RAW264.7 cells [5]; [10]) [%] | LPS-induced NO release in RAW264.7 cells (in words) (RAW264.7 cells [5]; LPS 100 ng/mL) | viability at 24 h, 20 μmol/L ([6]; LPS 100 ng/mL) [%] | viability at 24 h, 20 μmol/L ([6]; no LPS) [%] | viability at 24 h, 40 μmol/L ([6]; LPS 100 ng/mL) [%] | other results |
| --- | --- | --- | --- | --- | --- | --- | --- | --- | --- | --- | --- | --- | --- | --- | --- | --- | --- | --- | --- | --- | --- |
| O=C(/C=C/c1ccc(O)c(O)c1)O[C@H]1[C@H](O)C[C@](O)(C(=O)O)C[C@H]1OC(=O)/C=C/c1ccc(O)c(O)c1 [Isochlorogenic acid C, isochlorogenic acid C] | 6.34 | 40.24 | improve the deformation of the inflammatory cells | 206.6±7.8 | 140.0±7.6 | 188.8±1.4 | 190.4±0.2 | 201.4±3.8 | 186.6±4.1 | low toxicity on RAW264.7 cells | 6.6 ± 0.3 | 5.9 ± 0.4 | 6.7 ± 0.6 | 25.6 | 7.2 ± 0.6 | 19.9 | can inhibit LPS-induced NO release in RAW264.7 cells | – | – | – | – |
| O=c1cc(-c2ccc(O)c(O)c2)oc2cc(O[C@@H]3O[C@H](CO)[C@@H](O)[C@H](O)[C@H]3O)cc(O)c12 [Luteoloside, luteoloside] | 8.87 | 27.26 | no significant effect on cells | 102.6±0.4 | 100.2±2.1 | 104.2±3.4 | 102.1±1.7 | 103.2±4.8 | 56.8±8.8 | – | 11.5 ± 0.1 | 15.8 ± 1.5 | 11.9 ± 0.5 | -24.9 | 13.6 ± 1.3 | -43.0 | failed to inhibit | – | – | – | Inhibition rate (%) of NO production (RAW264.7 cells [5]; 20 μmol/L, LPS 100 ng/mL, vs model group): -20.2% |
| O=c1cc(-c2ccc(O)c(O)c2)oc2cc(O)cc(O)c12 [Luteolin, luteolin] | 34.85 | – | cause a large number of cell death | – | – | – | – | – | – | – | – | – | – | – | – | – | failed to inhibit | 52.6 ± 3.1 | 49.5 ± 3.9 | 33.4 ± 12.9 | viability at 24 h, 1 μmol/L ([6]; LPS 100 ng/mL): 195 ± 2.6%; viability at 24 h, 1 μmol/L ([6]; no LPS): 120 ± 7.2%; viability at 24 h, 2 μmol/L ([6]; 2 μmol/L, LPS 100 ng/mL): 199 ± 8.6%; viability at 24 h, 5 μmol/L ([6]; 5 μmol/L, LPS 100 ng/mL): 170 ± 3.5%; viability at 24 h, 40 μmol/L ([6]; no LPS): 22 ± 2.4%; viability at 24 h, 60 μmol/L ([6]; LPS 100 ng/mL): 1.4 ± 0.6%; viability at 24 h, 60 μmol/L ([6]; no LPS): 1.5 ± 0.4%; NO content (RAW264.7 cells [5]; 1 μmol/L, LPS 100 ng/mL): 14.4 ± 0.4 µmol/L; NO content (RAW264.7 cells [5]; 1 μmol/L, no LPS): 11.6 ± 0.6 µmol/L; NO content (RAW264.7 cells [5]; 2 μmol/L, LPS 100 ng/mL): 12.1 ± 0.1 µmol/L; NO content (RAW264.7 cells [5]; 5 μmol/L, LPS 100 ng/mL): 9.4 ± 0.5 µmol/L; inhibition at 1 µM (RAW264.7 cells [5]; Mus musculus, RAW264.7, 1 μmol/L, LPS 100 ng/mL, vs model group, read-out: Inhibition rate (%) of NO production): -51.1%; inhibition at 2 µM (RAW264.7 cells [5]; Mus musculus, RAW264.7, 2 μmol/L, LPS 100 ng/mL, vs model group, read-out: Inhibition rate (%) of NO production): -26.4%; inhibition at 5 µM (RAW264.7 cells [5]; Mus musculus, RAW264.7, 5 μmol/L, LPS 100 ng/mL, vs model group, read-out: Inhibition rate (%) of NO production): 1.8%; IC50 (5-LOX [7]): 810 nM; viability at 24 h, 2 μmol/L [8]: 104 ± 8.5% |
| C[C@@H]1C[C@H]2[C@@H]3CCC4=CC(=O)C=C[C@]4(C)[C@@]3(F)[C@@H](O)C[C@]2(C)[C@@]1(O)C(=O)CO [Dexamethasone] | – | – | – | – | – | – | – | – | – | – | – | – | – | – | – | – | – | – | – | – | Anti-inflammatory effect, foot swelling rate (rat foot swelling): showed a good anti-inflammatory effect |
| C[C@@H]1O[C@@H](O[C@H]2[C@H](Oc3cc(O)c4c(=O)cc(-c5ccc(O)c(O)c5)oc4c3)O[C@H](CO)[C@@H](O)[C@@H]2O)[C@H](O)[C@H](O)[C@H]1O [Lonicerin, lonicerin] | 23.42 | – | improve the deformation of the inflammatory cells | – | – | – | – | – | – | low toxicity on RAW264.7 cells | 6.9 ± 0.3 | 6.1 ± 0.1 | 7.4 ± 0.2 | – | 7.9 ± 2.4 | – | could also inhibit LPS-induced NO release | 216 ± 4.2 | 196.2 ± 1.8 | 204 ± 3.5 | viability at 24 h, 40 μmol/L ([6]; no LPS): 180 ± 9.1%; viability at 24 h, 60 μmol/L ([6]; LPS 100 ng/mL): 226 ± 7.8%; viability at 24 h, 60 μmol/L ([6]; no LPS): 179.4 ± 0.8%; inhibition at 20 µM (RAW264.7 cells [5]; Mus musculus, RAW264.7, 20 μmol/L, LPS 100 ng/mL, vs model group, read-out: Inhibition rate (%) of NO production): 23.7%; inhibition at 40 µM (RAW264.7 cells [5]; Mus musculus, RAW264.7, 40 μmol/L, LPS 100 ng/mL, vs model group, read-out: Inhibition rate (%) of NO production): 18.5%; inhibition at 60 µM (RAW264.7 cells [5]; Mus musculus, RAW264.7, 60 μmol/L, LPS 100 ng/mL, vs model group, read-out: Inhibition rate (%) of NO production): 12.4% |
